Experimental data as given in publication PMC11571109, “Covalent Inhibitors of S100A4 Block the Formation of a Pro-Metastasis Non-Muscle Myosin 2A Complex” (Journal of Medicinal Chemistry, 2024).
“And” between values parts separate entries of the source, which are not always exact repeats. Identical values can stand only once. Like-named read-outs stand apart in the source and are kept apart here.

How the values were obtained:
[1] = target: T1, S100A11-AnII (Homo sapiens, UniProt P31949); experiment: HTRF (TR-FRET) peptide displacement S100A11-AnII; assay type: binding; settings: supplementary CSV
T1 construct: made in house; host or cells: E. coli Rosetta (DE3); peptide from LifeTein
T1 sequence (P31949 1-105): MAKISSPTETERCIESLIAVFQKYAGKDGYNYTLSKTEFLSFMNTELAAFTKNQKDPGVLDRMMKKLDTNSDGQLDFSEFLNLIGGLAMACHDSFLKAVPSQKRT
Protocol: Table S4: Compound IDs and SMILES … S30 […]
(§1) Peptide displacement assay development
(§2) addition of an inhibitor.
(§3) Assay was done in 384-well
(§4) After 2 hours of incubation at
(§5) concentration range to avoid the saturation of the signal.

[2] = target: T2, S100A4-NMII (Homo sapiens, UniProt P26447); experiment: HTRF (TR-FRET) peptide displacement S100A4-NMII (MPN peptide); assay type: binding; parameters: made in house; host or cells: E. coli Rosetta (DE3); peptide from LifeTein; settings: supplementary CSV; read-out: S100A4 IC50 HTRF assay
T2 sequence (P26447 whole entry): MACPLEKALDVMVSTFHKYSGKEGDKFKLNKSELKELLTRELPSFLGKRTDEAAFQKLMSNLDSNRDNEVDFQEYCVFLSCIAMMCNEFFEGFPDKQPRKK
Protocol: as §1, §2, §3, §4, §5

[3] = target: S100A4 (Homo sapiens, UniProt P26447); experiment: Protein labeling detection by mass spectrometry, S100A4; settings: 10 μM S100A4, 100 μM inhibitor, 1 h
Chain of S100A4 (P26447 whole entry): as above
Protocol: To confirm its mechanism of inhibition, we performed a protein labeling assay. S100A4 protein was incubated in the presence of BAY11–7082 and analyzed by mass spectrometry (Figure 1C).
The compounds and their activity on S100A4-NMII and S100A11-AnII are shown in Figure 2A,B. To investigate their covalent activity, we then performed a protein labeling assay by incubating S100A4 in the presence of the inhibitors in parallel.
The mixture was incubated for 1 h at room temperature in the dark and analyzed by mass spectrometry using a 1290 Infinity coupled to a 6530 Accurate-Mass Q-TOF LC/MS (Agilent Technologies). Results were analyzed using the Qualitative Analysis MassHunter Acquisition Data and the Bioconfirm software.

[4] = tested on: A549; experiment: Cell proliferation assay (CellTiter-Glo), A549; assay type: cell-based; settings: Homo sapiens, 48 h, supplementary CSV
Protocol: (§6) To further characterize the potency of the phenylproline derivatives on cancer cells, their effect on proliferation has been measured on HeLa and A549 cell lines, which are known to express S100A4.[44],[45] A cell proliferation assay was performed by cultivating cells for 48 h in complete media with various concentrations of inhibitors, up to 30 μM. At the end of the treatment, luminescence was measured after the addition of the CellTiter-Glo reagent (Figure 7A).
(§7) The day before, cells were seeded in a white, cell-culture treated 384-well plates in complete high-glucose DMEM to reach a confluency of 25% on the day of the experiment. The next day, the medium was replaced by complete, high-glucose, phenol-red-free medium, and cells were incubated for 48 h in the presence of an inhibitor or DMSO as a control. Aliquots of the supernatant were harvested, diluted 100 times in 200 mM Tris-HCl, pH 7.3, 10% glycerol, and 1% BSA buffer, and used for cyctotoxicity measurement by using the LDH-Glo cytotoxicity assay kit (Promega). In parallel, the CellTiter-Glo (Promega) reagent was added to the cells to measure cell proliferation. Both experiments were done according to the manufacturer’s recommendations, and the luminescence was quantified using the FSX plate reader (Pherastar).

[5] = Aqueous solubility in PBS (pH 7.4); assay type: physicochemical; settings: aqueous buffer; PBS pH 7.4; read-out: aq. solubility
Excerpt: (§8) Selected compounds were screened for aqueous solubility in PBS (pH 7.4), metabolic stability in mouse liver microsomes (MLM) as a measure of clearance, Log D, and permeability. ADME studies reported in this work were independently performed by WuXi AppTec (Shanghai, China). Raw data are provided upon request.

[6] = Metabolic stability in mouse liver microsomes (MLM); assay type: in vitro ADME; settings: mouse liver microsomes
Excerpt: as §8

[7] = GSH reactivity assay (LCMS); assay type: physicochemical; settings: 1 mM glutathione (GSH) in HEPES buffer, pH 7.5; read-out: GSH t1/2 (converted)
Protocol: GSH is the most abundant low molecular weight thiol compound in the cell. It protects cells from oxidative damage and the toxicity of xenobiotic electrophiles and maintains redox homeostasis.[43] We speculated that a robust and specific reaction of inhibitors would not be drastically affected by competitive cysteines in the reaction.
50 μM of each compound was incubated at room temperature with 1 mM GSH in 50 mM HEPES, 20 mM NaCl, pH 7.5, and 1.3% DMSO. At each time point, an aliquot was taken and analyzed by LCMS. The percentage of the compound remaining was determined by comparing the area of the peaks of the compound and the GSH adduct. The natural logarithm of the results was fitted to a linear regression, and t1/2 was calculated as t1/2 = ln(2)/–slope.

[8] = Cytotoxicity assay (LDH-Glo), A549; assay type: cell-based; settings: human, A549 cells, supplementary CSV, read-out: A549 Cell toxicity IC50
Protocol: as §6, §7

[9] = tested on: HeLa cells; experiment: Cell migration (wound healing) assay, HeLa; assay type: cell-based; settings: 8 μM, 36 h
Protocol: We next investigated whether phenylproline derivatives would inhibit S100A4 activity by affecting cell migration. HeLa and A549 cells were challenged for a cell migration assay in the presence of phenylproline derivatives. A monolayer of cells was scratched and treated with various concentrations of inhibitors for 36 h. Cell migration was monitored automatically using the Incucyte live-cell imager by imaging cells every 2 h.
The day before the experiment, cells were seeded in a black, clear-bottom, collagen-coated 96-well plate in complete high-glucose DMEM to reach nearly full confluency the next day. On the day of the experiment, a wound in the cell layer was made, and the media were replaced with media containing phenylproline derivatives. Cells were incubated for 36 h in an Incucyte cell-imager (Sartorius, Germany), allowing for automated cell imaging every 2 h. The analysis was done by measuring the wound area using ImageJ and plugging the wound healing tool.

[10] = tested on: HeLa; experiment: Cell proliferation assay (CellTiter-Glo), HeLa; assay type: cell-based; settings: Homo sapiens, 48 h, supplementary CSV
Protocol: as §6, §7

[11] = target: T2, S100A4-NMII; experiment: cell-based
Excerpt: First, we performed IC50 measurements of protein–protein interaction in the presence of inhibitors using NanoBret technology. Briefly, S100A4-HaloTag and NMII-NanoLuc were expressed in 293HEK cells to allow signal detection from donor (NanoLuc) and acceptor (HaLoTag) proximity upon S100A4-NMII interaction.
Assay development was done according to the NanoBRet-NanoGlo detection system manufacturer’s recommendations (Promega) by testing each combination of N- and C-termini of HaloTag and NanoLuc fusion constructs. 293HEK cells were seeded on 6-well plates in complete DMEM media and transfected 6 h later with S100A4-NanoLuc (1.8 μg) and NMII-HaloTag (0.2 μg) constructs using the JetPrime transfection reagent (Polyplus Transfection, Strasbourg, France). After an overnight incubation, cells were resuspended in phenol-red-free, 4% serum media in the presence of the HaloTag NanoBret 618 ligand or DMSO for control. […] NanoBret NanoGlo substrates were added to cells prior to reading the plate with the Pherastar FSX plate reader. The raw Nanobret ratio was calculated by dividing the acceptor emission value (618 nm) by the donor emission value (460 nm) for each sample. The mean NanoBret data were calculated by subtracting the background ratio (no acceptor control) from the sample ratio.

[12] = Log D; assay type: physicochemical
Excerpt: as §8

[13] = tested on: P-glycoprotein (P-gp, MDR1); experiment: Cell permeability MDR1-MDCK II; assay type: in vitro ADME; settings: dog
Excerpt: as §8

[14] = Cytotoxicity assay (LDH-Glo), HeLa; assay type: cell-based; settings: human, HeLa cells, supplementary CSV, read-out: HeLa Cell toxicity IC50
Protocol: as §6, §7

Row | Compound | IC50 [1] [µM] | IC50 [2] [µM] | S100A4 covalent modification pattern (in words) [3] | also measured
1 | CC(C)c1c(-c2ccc(OCCNC(=O)/C=C/C(=O)c3ccccc3)cc2)[nH]c2c(C#N)cnn2c1=O [2a] | 3.67 | 0.43 | multiple adduct additions | –
2 | CC(C)c1c(-c2cnn(C3CCN(C(=O)/C=C/C(=O)c4ccccc4)CC3)c2)[nH]c2c(C#N)cnn2c1=O [2b] | 1.35 | 0.48 | multiple adduct additions | –
3 | CC(C)c1c(-c2cnn(CCNC(=O)/C=C/C(=O)c3ccccc3)c2)[nH]c2c(C#N)cnn2c1=O [2c] | 5.6 | 1.79 | – | –
4 | O=C(CCl)Nc1ccc2c(c1)CN(CCc1cnn(-c3nccc4c(=O)[nH]cnc34)c1)CC2 [2d] | > 30 | 9.24 | – | –
5 | O=C(CCl)Nc1cccc(CN(CCc2cnn(-c3nccc4c(=O)[nH]cnc34)c2)C2CCCC2)c1 [3a] | > 30 | 2.4 | – | –
6 | C=CC(=O)Nc1cccc(CN(CCc2cnn(-c3nccc4c(=O)[nH]cnc34)c2)C2CCCC2)c1 [3b] | > 30 | 9.32 | – | –
7 | C#CC(=O)N1CCN(CCc2cnn(-c3nccc4c(=O)[nH]cnc34)c2)CC1 [4a] | 8.15 | 1.73 | – | –
8 | O=C(Nc1cccc(Cl)c1)[C@H]1C[C@H](c2ccccc2)CN1C(=O)CCl [5a] | > 30 | 4.22 | single shifts | IC50 [4]: 25 µM; solubility [5]: 23.9 µg/mL and 63.4 µM; MLM, Cli [6]: 332 μL/min/mg protein; half-life ([6]; read-out: MLM, T1/2): 4 min; half-life at 50 μM [7]: 9.4 h; IC50 at 48 h [8]: 27.1 µM; wound healing (cell migration) [9]: drastically reduced wound healing; IC50 [10]: 3.1 µM; IC50 [11]: 20 µM; logD [12]: 3.95; Papp ([13]; MDCK-MDR1, A to B, read-out: MDR1-MDCK II, AB Papp): 0.8 ×10⁻⁶ cm/s; Papp ([13]; MDCK-MDR1, B to A, read-out: MDR1-MDCK II, BA Papp): < 26.4 ×10⁻⁶ cm/s; IC50 at 48 h [14]: 55.8 µM
